Test results as given in patent US8748415B2 (priority 2011, dated 2014).

System: recombinant NL4-3 virus (Renilla luciferase in nef, Gag P373S)
Assay: HIV cell culture assay (luciferase activity in MT-2 cells infected with NLRluc recombinant virus)
Assay type: cell-based
Conditions: NL43, MT-2 cells infected 4-5 days with NLRluc recombinant virus, class symbol
Method in brief: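 Activity was read as luciferase output (Dual Luciferase reagents premixed with lysis solution) after 4–5 days of infection in serially diluted inhibitor. Host cells were MT-2 in 10% FBS RPMI. The reporter virus came from transfected 293T cells and was titered on MT-2.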

SMILES | EC50 [nM]
C=C(C)[C@@H]1CC[C@]2(CNC(=O)[C@H]3CCCN3)CC[C@]3(C)[C@H](CC[C@@H]4[C@@]5(C)CC=C(c6ccc(C(=O)O)cc6)C(C)(C)[C@@H]5CC[C@]43C)[C@@H]12 [Example 137, 4-((1R,3aS,5aR,5bR,7aR,11aS,11bR,13aR,13bR)-5a,5b,8,8,11a-pentamethyl-1-(prop-1-en-2-yl)-3a-(((R)-pyrrolidine-2-carboxamido)methyl)-2,3,3a,4,5,5a,5b,6,7,7a,8,11,11a,11b,12,13,13a,13b-octadecahydro-1H-cyclopenta[a]chrysen-9-yl)benzoic acid] | < 100
C=C(C)[C@@H]1CC[C@]2(CNC(=O)[C@@H]3CCCN3C(C)=O)CC[C@]3(C)[C@H](CC[C@@H]4[C@@]5(C)CC=C(c6ccc(C(=O)O)cc6)C(C)(C)[C@@H]5CC[C@]43C)[C@@H]12 [Example 138, 4-((1R,3aS,5aR,5bR,7aR,11aS,11bR,13aR,13bR)-3a-(((S)-1-acetylpyrrolidine-2-carboxamido)methyl)-5a,5b,8,8,11a-pentamethyl-1-(prop-1-en-2-yl)-2,3,3a,4,5,5a,5b,6,7,7a,8,11,11a,11b,12,13,13a,13b-octadecahydro-1H-cyclopenta[a]chrysen-9-yl)benzoic acid] | < 100
C=C(C)[C@@H]1CC[C@]2(CNC(=O)CNC)CC[C@]3(C)[C@H](CC[C@@H]4[C@@]5(C)CC=C(c6ccc(C(=O)O)cc6)C(C)(C)[C@@H]5CC[C@]43C)[C@@H]12 [Example 139, 4-((1R,3aS,5aR,5bR,7aR,11aS,11bR,13aR,13bR)-5a,5b,8,8,11a-pentamethyl-3a-((2-(methylamino)acetamido)methyl)-1-(prop-1-en-2-yl)-2,3,3a,4,5,5a,5b,6,7,7a,8,11,11a,11b,12,13,13a,13b-octadecahydro-1H-cyclopenta[a]chrysen-9-yl)benzoic acid] | < 100
C=C(C)[C@@H]1CC[C@]2(CNC(=O)[C@@H](N)Cc3c[nH]cn3)CC[C@]3(C)[C@H](CC[C@@H]4[C@@]5(C)CC=C(c6ccc(C(=O)O)cc6)C(C)(C)[C@@H]5CC[C@]43C)[C@@H]12 [Example 140, 4-((1R,3aS,5aR,5bR,7aR,11aS,11bR,13aR,13bR)-3a-(((S)-2-amino-3-(1H-imidazol-4-yl)propanamido)methyl)-5a,5b,8,8,11a-pentamethyl-1-(prop-1-en-2-yl)-2,3,3a,4,5,5a,5b,6,7,7a,8,11,11a,11b,12,13,13a,13b-octadecahydro-1H-cyclopenta[a]chrysen-9-yl)benzoic acid] | < 100
C=C(C)[C@@H]1CC[C@]2(CNC(=O)CCN3CCNCC3)CC[C@]3(C)[C@H](CC[C@@H]4[C@@]5(C)CC=C(c6ccc(C(=O)O)cc6)C(C)(C)[C@@H]5CC[C@]43C)[C@@H]12 [Example 141, 4-((1R,3aS,5aR,5bR,7aR,11aS,11bR,13aR,13bR)-5a,5b,8,8,11a-pentamethyl-3a-((3-(piperazin-1-yl)propanamido)methyl)-1-(prop-1-en-2-yl)-2,3,3a,4,5,5a,5b,6,7,7a,8,11,11a,11b,12,13,13a,13b-octadecahydro-1H-cyclopenta[a]chrysen-9-yl)benzoic acid] | < 100
C=C(C)[C@@H]1CC[C@]2(CNC(=O)CCN(C)C)CC[C@]3(C)[C@H](CC[C@@H]4[C@@]5(C)CC=C(c6ccc(C(=O)O)cc6)C(C)(C)[C@@H]5CC[C@]43C)[C@@H]12 [Example 142, 4-((1R,3aS,5aR,5bR,7aR,11aS,11bR,13aR,13bR)-3a-((3-(dimethylamino)propanamido)methyl)-5a,5b,8,8,11a-pentamethyl-1-(prop-1-en-2-yl)-2,3,3a,4,5,5a,5b,6,7,7a,8,11,11a,11b,12,13,13a,13b-octadecahydro-1H-cyclopenta[a]chrysen-9-yl)benzoic acid] | < 100
C=C(C)[C@@H]1CC[C@]2(CNC(=O)c3cccc(C(=O)O)c3)CC[C@]3(C)[C@H](CC[C@@H]4[C@@]5(C)CC=C(c6ccc(C(=O)O)cc6)C(C)(C)[C@@H]5CC[C@]43C)[C@@H]12 [Example 143, 3-(((1R,3aS,5aR,5bR,7aR,11aS,11bR,13aR,13bR)-9-(4-carboxyphenyl)-5a,5b,8,8,11a-pentamethyl-1-(prop-1-en-2-yl)-2,3,3a,4,5,5a,5b,6,7,7a,8,11,11a,11b,12,13,13a,13b-octadecahydro-1H-cyclopenta[a]chrysen-3a-yl)methylcarbamoyl)benzoic acid] | < 100
C=C(C)[C@@H]1CC[C@]2(CNC(=O)c3ccc(S(N)(=O)=O)cc3)CC[C@]3(C)[C@H](CC[C@@H]4[C@@]5(C)CC=C(c6ccc(C(=O)O)cc6)C(C)(C)[C@@H]5CC[C@]43C)[C@@H]12 [Example 144, 4-((1R,3aS,5aR,5bR,7aR,11aS,11bR,13aR,13bR)-5a,5b,8,8,11a-pentamethyl-1-(prop-1-en-2-yl)-3a((4-sulfamoylbenzamido)methyl)-2,3,3a,4,5,5a,5b,6,7,7a,8,11,11a,11b,12,13,13a,13b-octadecahydro-1H-cyclopenta[a]chrysen-9-yl)benzoic acid] | < 100
C=C(C)[C@@H]1CC[C@]2(CNC(=O)CN3CCS(=O)(=O)CC3)CC[C@]3(C)[C@H](CC[C@@H]4[C@@]5(C)CC=C(c6ccc(C(=O)O)cc6)C(C)(C)[C@@H]5CC[C@]43C)[C@@H]12 [Example 145, 4-((1R,3aS,5aR,5bR,7aR,11aS,11bR,13aR,13bR)-3a-((((1,1-dioxido-4-thiomorpholinyl)acetyl)amino)methyl)-1-isopropenyl-5a,5b,8,8,11a-pentamethyl-2,3,3a,4,5,5a,5b,6,7,7a,8,11,11a,11b,12,13,13a,13b-octadecahydro-1H-cyclopenta[a]chrysen-9-yl)benzoic acid] | < 100
C=C(C)[C@@H]1CC[C@]2(CNC(=O)CCN3CCS(=O)(=O)CC3)CC[C@]3(C)[C@H](CC[C@@H]4[C@@]5(C)CC=C(c6ccc(C(=O)O)cc6)C(C)(C)[C@@H]5CC[C@]43C)[C@@H]12 [Example 146, 4-((1R,3aS,5aR,5bR,7aR,11aS,11bR,13aR,13bR)-3a-(((3-(1,1-dioxido-4-thiomorpholinyl)propanoyl)amino)methyl)-1-isopropenyl-5a,5b,8,8,11a-pentamethyl-2,3,3a,4,5,5a,5b,6,7,7a,8,11,11a,11b,12,13,13a,13b-octadecahydro-1H-cyclopenta[a]chrysen-9-yl)benzoic acid] | < 100
C=C(C)[C@@H]1CC[C@]2(CNC(=O)CN3CCCCS3(=O)=O)CC[C@]3(C)[C@H](CC[C@@H]4[C@@]5(C)CC=C(c6ccc(C(=O)O)cc6)C(C)(C)[C@@H]5CC[C@]43C)[C@@H]12 [Example 147, 4-((1R,3aS,5aR,5bR,7aR,11aS,11bR,13aR,13bR)-3a-((((1,1-dioxido-1,2-thiazinan-2-yl)acetyl)amino)methyl)-1-isopropenyl-5a,5b,8,8,11a-pentamethyl-2,3,3a,4,5,5a,5b,6,7,7a,8,11,11a,11b,12,13,13a,13b-octadecahydro-1H-cyclopenta[a]chrysen-9-yl)benzoic acid] | < 100
C=C(C)[C@@H]1CC[C@]2(CNC(=O)CN(C)C)CC[C@]3(C)[C@H](CC[C@@H]4[C@@]5(C)CC=C(c6ccc(C(=O)O)cc6)C(C)(C)[C@@H]5CC[C@]43C)[C@@H]12 [Example 148, 4-((1R,3aS,5aR,5bR,7aR,11aS,11bR,13aR,13bR)-3a-((2-(dimethylamino)acetamido)methyl)-5a,5b,8,8,11a-pentamethyl-1-(prop-1-en-2-yl)-2,3,3a,4,5,5a,5b,6,7,7a,8,11,11a,11b,12,13,13a,13b-octadecahydro-1H-cyclopenta[a]chrysen-9-yl)benzoic acid] | < 100
C=C(C)[C@@H]1CC[C@]2(CNC(=O)[C@@H]3CCCN3C)CC[C@]3(C)[C@H](CC[C@@H]4[C@@]5(C)CC=C(c6ccc(C(=O)O)cc6)C(C)(C)[C@@H]5CC[C@]43C)[C@@H]12 [Example 150, 4-((1R,3aS,5aR,5bR,7aR,11aS,11bR,13aR,13bR)-5a,5b,8,8,11a-pentamethyl-3a-(((S)-1-methylpyrrolidine-2-carboxamido)methyl)-1-(prop-1-en-2-yl)-2,3,3a,4,5,5a,5b,6,7,7a,8,11,11a,11b,12,13,13a,13b-octadecahydro-1H-cyclopenta[a]chrysen-9-yl)benzoic acid] | < 100
C=C(C)[C@@H]1CC[C@]2(CNC(=O)[C@H]3CCCN3C)CC[C@]3(C)[C@H](CC[C@@H]4[C@@]5(C)CC=C(c6ccc(C(=O)O)cc6)C(C)(C)[C@@H]5CC[C@]43C)[C@@H]12 [Example 151, 4-((1R,3aS,5aR,5bR,7aR,11aS,11bR,13aR,13bR)-5a,5b,8,8,11a-pentamethyl-3a-(((R)-1-methylpyrrolidine-2-carboxamido)methyl)-1-(prop-1-en-2-yl)-2,3,3a,4,5,5a,5b,6,7,7a,8,11,11a,11b,12,13,13a,13b-octadecahydro-1H-cyclopenta[a]chrysen-9-yl)benzoic acid] | < 100
C=C(C)[C@@H]1CC[C@]2(CNC(=O)C(F)(F)C(=O)NCCN(C)C)CC[C@]3(C)[C@H](CC[C@@H]4[C@@]5(C)CC=C(c6ccc(C(=O)O)cc6)C(C)(C)[C@@H]5CC[C@]43C)[C@@H]12 [Example 152, 4-((1R,3aS,5aR,5bR,7aR,11aS,11bR,13aR,13bR)-3a-((3-(2-(dimethylamino)ethylamino)-2,2-difluoro-3-oxopropanamido)methyl)-5a,5b,8,8,11a-pentamethyl-1-(prop-1-en-2-yl)-2,3,3a,4,5,5a,5b,6,7,7a,8,11,11a,11b,12,13,13a,13b-octadecahydro-1H-cyclopenta[a]chrysen-9-yl)benzoic acid] | < 100
